{"source": "patent US4080466A", "about": "“Pharmaceutical compositions containing 4-hydroxyl-1,3-dithiolan-2-ylidene malonates” (Nihon Nohyaku Co., Ltd., priority 1976, dated 1978)", "key": {"[1]": {"test_system": "fatty liver induced by ethionine", "assay": "Effect on Fatty Liver (ethionine)", "type": "in vivo, mouse (dd-strain)", "settings": "250 mg/kg oral, 24 h, 10 animals", "source_text": "But, the fatty liver is grouped into a couple of patterns from the mechanism of lipid accumulation or metabolism of lipoprotein in the liver. Ethionine is a typical example which induces first pattern of fatty liver. It inhibits RNA and protein synthesis and destructs polysome of the liver cell. Fatty liver is induced by inhibition of the protein synthesis and disturbance of lipoprotein secretion.\nUsually, fatty liver is closely related to the accumulation of triglyceride in the liver. In the present example, the degree of fatty liver and protective or therapeutic effect against the fatty liver was evaluated by measurement of triglyceride content in the liver. Methods:\nThe compounds of this invention and methionine were independently dissolved or suspended into olive oil and administered orally to 4 week-old male mouse (dd-strain) at the dose of 250 mg/kg. One hour before it, simultaneously to it, or one hour after it, ethionine dissolved in equimolar NaOH solution was administered intraperitoneally at the dose of 200 mg/kg. Twenty four hours after the administration of ethionine, the animals were sacrificed and triglyceride content in the liver was determined by chromotropic acid method."}, "[2]": {"test_system": "chronic liver damage induced by thioacetamide", "assay": "Therapeutic Effect on Chronic Liver Damage (thioacetamide), BSP test", "type": "in vivo, rats (Spraque Dawley strain)", "settings": "normal diet + 0.2% of compound after 12 times TAA 100 mg/kg", "description": "In the tests of this Example, TAA was repeatedly administered to animals to prepare test animals suffering from somewhat chronic liver damages, and then the present compounds were administered thereto to know whether or not the compounds were effective against chronic hepatitis.\nThe degree of the liver damage and the therapeutic effects of the compounds were evaluated according to BSP test. The BSP test is a method in which BSP (sulfobromophthalein sodium), a dye known to be quickly metabolized in and excreted from the liver, is intravenously injected into animals and, after a definite period of time, the blood is taken out to measure the amount of BSP remaining in the plasma. In case the animals are suffering from the lever damage, the dye will remain, according to the degree of the damage, at the stage where a major portion of BSP metabolized and excreted in the case of normal animals.\nFive groups of rats (Spraque Dawley strain) were treated as follows:\nGroup A: The rats were orally administered with 100 mg/kg of thioacetamide,at 3 days intervals for 36 days (12 times of the administration), then were submitted for 10 days to a normal diet.\nGroup B: The rats were orally administered with 100 mg/kg of thioacetamide at 3 days intervals for 36 days (12 times of the administration), then were submitted for 10 days to the normal diet + 0.2% of compound 4.\nGroup C: The rats were orally administered with 100 mg/kg of thioacetamide at 3 days intervals for 36 days (12 times of the administration), then were submitted for 10 days to the normal diet + 0.2% of compound 2.\nGroup D: The rats were orally administered with 100 mg/kg of thioacetamide at 3 days intervals for 36 days (12 times of the administration), then were submitted for 10 days to the normal diet + 0.2% of anethol trithion.\nGroup E: The rats were submitted to the normal diet as the control.\nFive rats were sacrificed from each group at appropriate intervals for BSP (sulfobromophthalein) test, the results of which were shown as amounts (mg) of BSP remaining in 1 dl of plasma."}, "bile flow": {"test_system": "bile flow", "assay": "Cholagogic Action: effect on bile flow", "type": "in vivo, rats (SD-JCL strain)", "settings": "200 mg/kg oral; for Bile flow: before treatment = 100; for Quantity of total excreted bile relative to control: 5 hours after administration", "description": "(§1) Drugs as choleresis are used for patients to improve bile flow. In the present example, the effect of the compound of the invention on the quantities of bile and biliary salt is investigated. Methods:\n(§2) The male rats (4 week-aged, SD-JCL strain) were anesthetized with sodium pentobarbital (37.5 mg/kg, intraperitoneal injection). The abdominal cavity was opened through a midline incision. The common bile duct was catheterized with polyethylene tube o.d. 0.8 mm. The catheter was brought to the outside through the abdominal incision would prior to closing. Bile was collected from the catheter continuously with time intervals of one hour. The quantity of bile produced in one hour was determined by weighing and that of biliary salt was determined by enzymatic method (Ikagaku Jikkenho Koza 1B, Biological Constituents II, edited by Tamio YAMAKAWA). The amount of biliary salt was represented in the term of cholic acid equivalent.\n(§3) In the representation of the results, the quantities of bile and biliary salt produced in one hour prior to the administration of drug were taken as 100. The compound of this invention was orally administered at the dose of 200 mg/kg. As reference, anethol trithion was used."}, "[3]": {"test_system": "excretion of biliary salt", "assay": "Cholagogic Action: effect on the excretion of biliary salt", "type": "in vivo, rats (SD-JCL strain)", "settings": "200 mg/kg oral; for Excretion of biliary salt: before treatment = 100; for Amount of total excreted biliary salts relative to control: 5 hours after administration", "description": "as §1, §2, §3"}, "[4]": {"test_system": "alcohol metabolic function of liver", "assay": "Effect on Concentration of Ethyl alcohol in the Blood", "type": "in vivo, mice", "settings": "250 mg/kg oral, 6 h before ethyl alcohol 1,000 mg/kg", "description": "After 6 hours, 1,000 mg/kg of ethyl alcohol was given orally. Blood was taken in a capillary from caudal vein at the time indicated in the results. The plasma was obtained by centrifugation. The concentration of ethyl alcohol in the plasma was measured by FID type gas liquid chromatography. Five mice were used for each group."}, "[5]": {"test_system": "acute liver damage induced by carbon tetrachloride", "assay": "Protective Effect on Acute Liver Damage associated with Centrilobular Necrosis (carbon tetrachloride)", "type": "in vivo, mice (dd-strain)", "settings": "250 mg/kg oral, average of 5 to 6 mice; for Liver damage index: 6 h before CCl4 (0.05 ml/kg oral), score 0 Normal, 2 slight, 4 clear, 6 heavy damage; for p-GPT (plasma glutamic-pyruvic transaminase activity): 6 h before CCl4, 24 h after CCl4, values over 1,000 regarded as 1,000", "source_text": "Carbon tetrachloride (CCl4) administration induces centrilobular necrosis of the liver associated with loss of diphosphopyridine nucleotide, hepatic glycogen, coenzyme A and increase in neutral fat. Release of several enzymes from the hepatocytes, and increase of enzyme activities in the plasma are recognized as the result of the damage of the liver. A suitable means for evaluating the degree of damage induced by CCl4 or the degree of protection afforded by drugs is to study the plasma glutamic-pyruvic transminase (p-GPT) activity.\nMethods: The test compounds were dissolved or suspended in olive oil and administered orally at the dose of 250 mg/kg to the mice (Four-week-old male mice-dd strain). After 6 hours, CCl4 was administered orally (0.05 ml/kg as olive oil solution). Animals were killed 24 hours after CCl4 administration, and the liver was grossly observed. The plasma was obtained by centrifugation. Activities of p-GPT were determined by the method of Reitman and Frankel and expressed in Karmen units.\nScore for liver damage index was as follows:\n4 Clearly observable damage\nEach figure indicates average of 5 to 6 mice. Values of p-GPT over 1,000 Karmen unit regarded as 1,000 for calculation of average for convenience."}, "[6]": {"settings": "compound 1 hr before ethionine (200 mg/kg i.p.)"}, "[7]": {"settings": "simultaneous with ethionine (0 hr)"}}, "data": [{"smiles": "CCOC(=O)C(C(=O)OC(C)C)=C1SCC(O)S1", "note": "(centres unmarked) [Compound 4, Ethyl isopropyl 4-hydroxy-1,3-dithiolan-2-ylidene malonate]", "values": [{"measurement": "Triglyceride", "setting": "[1]; compound 1 hr after ethionine", "result": "12.8 ± 0.92", "unit": "mg/g-liver"}, {"measurement": "Triglyceride", "setting": "[1]; [6]", "result": "12.0 ± 0.77", "unit": "mg/g-liver"}, {"measurement": "Triglyceride", "setting": "[1]; [7]", "result": "6.7 ± 0.43", "unit": "mg/g-liver"}, {"measurement": "BSP remaining in plasma", "setting": "[2]; 2 days", "result": "7.2 ± 1.2", "unit": "mg/dL"}, {"measurement": "BSP remaining in plasma", "setting": "[2]; 5 days", "result": "3.6 ± 0.5", "unit": "mg/dL"}, {"measurement": "BSP remaining in plasma", "setting": "[2]; 10 days", "result": "0.3 ± 0.1", "unit": "mg/dL"}, {"measurement": "Bile flow", "setting": "bile flow; 1 hour after treatment", "result": "108 ± 2.1"}, {"measurement": "Bile flow", "setting": "bile flow; 2 hours after treatment", "result": "120 ± 7.7"}, {"measurement": "Bile flow", "setting": "bile flow; 3 hours after treatment", "result": "107 ± 6.8"}, {"measurement": "Bile flow", "setting": "bile flow; 4 hours after treatment", "result": "98 ± 7.2"}, {"measurement": "Quantity of total excreted bile relative to control", "setting": "bile flow", "result": 1.11, "unit": "times"}, {"measurement": "Bile flow", "setting": "bile flow; 5 hours after treatment", "result": "88 ± 5.3"}, {"measurement": "Excretion of biliary salt", "setting": "[3]; 1 hour after treatment", "result": "100 ± 7.2"}, {"measurement": "Excretion of biliary salt", "setting": "[3]; 2 hours after treatment", "result": "106 ± 7.8"}, {"measurement": "Excretion of biliary salt", "setting": "[3]; 3 hours after treatment", "result": "98 ± 4.3"}, {"measurement": "Excretion of biliary salt", "setting": "[3]; 4 hours after treatment", "result": "90 ± 7.7"}, {"measurement": "Amount of total excreted biliary salts relative to control", "setting": "[3]", "result": 1.37, "unit": "times"}, {"measurement": "Excretion of biliary salt", "setting": "[3]; 5 hours after treatment", "result": "82 ± 6.8"}, {"measurement": "Concentration of Ethyl alcohol in Plasma", "setting": "[4]; 0 min", "result": "9±4", "unit": "ppm"}, {"measurement": "Concentration of Ethyl alcohol in Plasma", "setting": "[4]; 5 min", "result": "730±92", "unit": "ppm"}, {"measurement": "Concentration of Ethyl alcohol in Plasma", "setting": "[4]; 15 min", "result": "536±113", "unit": "ppm"}, {"measurement": "Concentration of Ethyl alcohol in Plasma", "setting": "[4]; 30 min", "result": "373±105", "unit": "ppm"}, {"measurement": "Concentration of Ethyl alcohol in Plasma", "setting": "[4]; 60 min", "result": "7±2", "unit": "ppm"}, {"measurement": "Liver damage index", "setting": "[5]", "result": 0.1}, {"measurement": "p-GPT (plasma glutamic-pyruvic transaminase activity)", "setting": "[5]", "result": 40, "unit": "Karmen units"}]}, {"smiles": "CC(C)OC(=O)C(C(=O)OC(C)C)=C1SCC(O)S1", "note": "(centres unmarked) [Compound 2, Diisopropyl 4-hydroxy-1,3-dithiolan-2-ylidene malonate]", "values": [{"measurement": "Triglyceride", "setting": "[1]; compound 1 hr after ethionine", "result": "11.8 ± 0.39", "unit": "mg/g-liver"}, {"measurement": "Triglyceride", "setting": "[1]; [6]", "result": "10.3 ± 0.96", "unit": "mg/g-liver"}, {"measurement": "Triglyceride", "setting": "[1]; [7]", "result": "6.9 ± 0.38", "unit": "mg/g-liver"}, {"measurement": "BSP remaining in plasma", "setting": "[2]; 2 days", "result": "7.0 ± 2.8", "unit": "mg/dL"}, {"measurement": "BSP remaining in plasma", "setting": "[2]; 5 days", "result": "3.1 ± 0.7", "unit": "mg/dL"}, {"measurement": "BSP remaining in plasma", "setting": "[2]; 10 days", "result": "0.8 ± 0.2", "unit": "mg/dL"}, {"measurement": "Bile flow", "setting": "bile flow; 1 hour after treatment", "result": "112 ± 2.4"}, {"measurement": "Bile flow", "setting": "bile flow; 2 hours after treatment", "result": "117 ± 6.8"}, {"measurement": "Bile flow", "setting": "bile flow; 3 hours after treatment", "result": "101 ± 7.0"}, {"measurement": "Bile flow", "setting": "bile flow; 4 hours after treatment", "result": "97 ± 8.3"}, {"measurement": "Quantity of total excreted bile relative to control", "setting": "bile flow", "result": 1.13, "unit": "times"}, {"measurement": "Bile flow", "setting": "bile flow; 5 hours after treatment", "result": "80 ± 7.3"}, {"measurement": "Excretion of biliary salt", "setting": "[3]; 1 hour after treatment", "result": "102 ± 7.3"}, {"measurement": "Excretion of biliary salt", "setting": "[3]; 2 hours after treatment", "result": "100 ± 5.8"}, {"measurement": "Excretion of biliary salt", "setting": "[3]; 3 hours after treatment", "result": "106 ± 7.9"}, {"measurement": "Excretion of biliary salt", "setting": "[3]; 4 hours after treatment", "result": "97 ± 7.2"}, {"measurement": "Amount of total excreted biliary salts relative to control", "setting": "[3]", "result": 1.43, "unit": "times"}, {"measurement": "Excretion of biliary salt", "setting": "[3]; 5 hours after treatment", "result": "90 ± 5.3"}, {"measurement": "Concentration of Ethyl alcohol in Plasma", "setting": "[4]; 0 min", "result": "10±7", "unit": "ppm"}, {"measurement": "Concentration of Ethyl alcohol in Plasma", "setting": "[4]; 5 min", "result": "711±95", "unit": "ppm"}, {"measurement": "Concentration of Ethyl alcohol in Plasma", "setting": "[4]; 15 min", "result": "558±104", "unit": "ppm"}, {"measurement": "Concentration of Ethyl alcohol in Plasma", "setting": "[4]; 30 min", "result": "426±96", "unit": "ppm"}, {"measurement": "Concentration of Ethyl alcohol in Plasma", "setting": "[4]; 60 min", "result": "13±6", "unit": "ppm"}, {"measurement": "Liver damage index", "setting": "[5]", "result": 0.1}, {"measurement": "p-GPT (plasma glutamic-pyruvic transaminase activity)", "setting": "[5]", "result": 20, "unit": "Karmen units"}]}]}
